Values belong to the molecule of their own block, whether it stands above or below them.
Experiments:
[1] = test system: monoclonal antibody #15-109-592; experiment: Fluorescence polarization immunoassay of the present invention, cross reactivity; format: binding, mouse; details: for PRESENT INVENTION VALUES / PRESENT INVENTION cross reactivity: 0 ug/mL vancomycin
[2] = test system: sheep polyclonal antibodies against vancomycin; experiment: commercially available Abbott Vancomycin assay (TDX/TDXFLX FPIA), cross reactivity; format: binding; details: for COMMERCIAL ASSAY VALUES / COMMERCIAL ASSAY cross reactivity: 0 ug/mL vancomycin
Description: Commercially available fluorescent polarization assays (FPIA) for vancomycin are available. For instance, commercially available assays (Abbott […]® assays, (hereinafter referred to as the “commercially available Abbott Vancomycin assays(s)”)) include reagents for the quantitative measurement of vancomycin in serum or plasma samples. These assays use a vancomycin derivative labeled with a dichlorotriazinylaminofluorescein (DTAF) (hereinafter referred to as the “commercially available tracer”), and sheep polyclonal antibodies against vancomycin (hereinafter referred to as “commercially available antibodies”). […] In contrast, the commercially available vancomycin assay has elevated levels of CDP-I cross reactivity ranging from 39.58% to 65% with or without vancomycin present. […] (Refer to Table 3 for CDP-I cross-reactivity data.)

[3] = target: anti-vancomycin Fab fragment; experiment: BIAcore solution competition, equilibrium dissociation constant; format: binding, mouse; details: in solution, 20 nM Fab fragment; read-out: Equilibrium Dissociation Constant (KD)
Protocol: Biosensor surfaces were regenerated after each injection with successive 1 minute pulses of 6 M, 6M, and 1.5 M guanidine hydrochloride. Initial rates of binding of anti-vancomycin Fab fragment to the biosensor surface were measured over a 15 second window beginning 20 seconds postinjection. Data was evaluated by non-linear regression analysis using the solution affinity model built into BIAevaluation 3.0 software (BIAcore, Inc).
The binding affinities of several vancomycin analogs and tracers for anti-vancomycin Fab fragment were determined from solution competition experiments carried out on a BIAcore 2000. Initially, known concentrations of anti-vancomycin Fab fragment (0-22 nM) were injected over the aminoalkyl vancomycin biosensor surface. The initial rate of binding for each anti-vancomycin Fab fragment concentration was obtained by averaging the observed binding rate over a […] window beginning 20 seconds post injection. Data from the first 20 seconds of each sensorgram were omitted due to sample dispersion effects at the start of injections. A plot of initial binding rate versus concentration of anti-vancomycin Fab fragment was fit using a 4-parameter logistic (general model in BIAevaluation 3.0) providing a standard curve. […] A fixed concentration of anti-vancomycin Fab fragment (20 nM) was then mixed with twelve concentrations of each vancomycin analog or tracer and allowed to reach equilibrium. The equilibrium mixtures were individually injected over the aminoalkyl vancomycin biosensor surface, and the concentration of free anti-vancomycin Fab fragment remaining was quantitated by determination of the initial rate of binding to the biosensor surface as described above. A plot of free anti-vancomycin Fab fragment versus total concentration of added analog or tracer provides a competition curve. […] The data points represent the experimentally determined concentrations of free anti-vancomycin Fab fragment in equilibrium solutions at a given concentration of soluble analog or tracer. The curves represent the best nonlinear fit of the data using equation 1 (solution affinity model in BIAevaluation software) below: [formula]
where Fabτ is the concentration of free anti-vancomycin Fab fragment in equilibrium solutions, Fabτ is the total concentration of anti-vancomycin Fab fragment in solution (20 nM), A is the total concentration of added vancomycin analog or tracer, and KD is the equilibrium dissociation constant for the binding of the vancomycin analog or tracer to anti-vancomycin Fab fragment in solution.

[4] = 40 ug/mL vancomycin, 1 ug/mL CDP-I
[5] = 40 ug/mL vancomycin, 10 ug/mL CDP-I
[6] = 40 ug/mL vancomycin, 50 ug/mL CDP-I
[7] = 40 ug/mL vancomycin, 100 ug/mL CDP-I
[8] = 80 ug/mL vancomycin, 1 ug/mL CDP-I
[9] = 80 ug/mL vancomycin, 10 ug/mL CDP-I
[10] = 80 ug/mL vancomycin, 50 ug/mL CDP-I
[11] = 80 ug/mL vancomycin, 100 ug/mL CDP-I

Molecule: CNC(CC(C)C)C(=O)NC1C(=O)NC(C(=O)O)CC(=O)NC2C(=O)NC3C(=O)NC(C(=O)NC(C(=O)O)c4cc(O)cc(O)c4-c4cc3ccc4O)C(O)c3ccc(c(Cl)c3)Oc3cc2cc(c3OC2OC(CO)C(O)C(O)C2OC2CC(C)(N)C(O)C(C)O2)Oc2ccc(cc2Cl)C1O (centres unmarked) [CDP-I, Crystalline Degradation Product I]
- PRESENT INVENTION VALUES ([1]; CDP-I 1 ug/mL): 0.22 µg/mL
- PRESENT INVENTION cross reactivity ([1]; CDP-I 1 ug/mL): N.D. (Less than sensitivity at 2.00 ug/mL vancomycin)
- PRESENT INVENTION VALUES ([1]; CDP-I 2.5 ug/mL): 0.15 µg/mL
- PRESENT INVENTION cross reactivity ([1]; CDP-I 2.5 ug/mL): N.D. (Less than sensitivity at 2.00 ug/mL vancomycin)
- PRESENT INVENTION VALUES ([1]; CDP-I 5 ug/mL): 0.26 µg/mL
- PRESENT INVENTION cross reactivity ([1]; CDP-I 5 ug/mL): N.D. (Less than sensitivity at 2.00 ug/mL vancomycin)
- PRESENT INVENTION VALUES ([1]; CDP-I 7 ug/mL): LOW
- PRESENT INVENTION cross reactivity ([1]; CDP-I 7 ug/mL): N.D. (Less than sensitivity at 2.00 ug/mL vancomycin)
- PRESENT INVENTION VALUES ([1]; CDP-I 10 ug/mL): 0.13 µg/mL
- PRESENT INVENTION cross reactivity ([1]; CDP-I 10 ug/mL): N.D. (Less than sensitivity at 2.00 ug/mL vancomycin)
- PRESENT INVENTION VALUES ([1]; CDP-I 15 ug/mL): LOW
- PRESENT INVENTION cross reactivity ([1]; CDP-I 15 ug/mL): N.D. (Less than sensitivity at 2.00 ug/mL vancomycin)
- PRESENT INVENTION VALUES ([1]; CDP-I 20 ug/mL): 0.46 µg/mL
- PRESENT INVENTION cross reactivity ([1]; CDP-I 20 ug/mL): N.D. (Less than sensitivity at 2.00 ug/mL vancomycin)
- PRESENT INVENTION VALUES ([1]; CDP-I 25 ug/mL): 0.18 µg/mL
- PRESENT INVENTION cross reactivity ([1]; CDP-I 25 ug/mL): N.D. (Less than sensitivity at 2.00 ug/mL vancomycin)
- PRESENT INVENTION VALUES ([1]; CDP-I 50 ug/mL): 0.67 µg/mL
- PRESENT INVENTION cross reactivity ([1]; CDP-I 50 ug/mL): N.D. (Less than sensitivity at 2.00 ug/mL vancomycin)
- PRESENT INVENTION [1, 4]: 40.86 µg/mL
- PRESENT INVENTION % C.R. [1, 4]: N.D. (Less than sensitivity at 2.00 ug/mL vancomycin)
- PRESENT INVENTION Diff/Sample-Control [1, 4]: -0.20 µg/mL
- PRESENT INVENTION [1, 5]: 40.50 µg/mL
- PRESENT INVENTION % C.R. [1, 5]: N.D. (Less than sensitivity at 2.00 ug/mL vancomycin)
- PRESENT INVENTION Diff/Sample-Control [1, 5]: -0.54 µg/mL
- PRESENT INVENTION [1, 6]: 39.13 µg/mL
- PRESENT INVENTION % C.R. [1, 6]: N.D. (Less than sensitivity at 2.00 ug/mL vancomycin)
- PRESENT INVENTION Diff/Sample-Control [1, 6]: -0.14 µg/mL
- PRESENT INVENTION [1, 7]: 37.22 µg/mL
- PRESENT INVENTION % C.R. [1, 7]: N.D. (Less than sensitivity at 2.00 ug/mL vancomycin)
- PRESENT INVENTION Diff/Sample-Control [1, 7]: 0.24 µg/mL
- PRESENT INVENTION % C.R. [1, 8]: N.D. (Less than sensitivity at 2.00 ug/mL vancomycin)
- PRESENT INVENTION Diff/Sample-Control [1, 8]: -0.64 µg/mL
- PRESENT INVENTION [1, 9]: 79.49 µg/mL
- PRESENT INVENTION % C.R. [1, 9]: N.D. (Less than sensitivity at 2.00 ug/mL vancomycin)
- PRESENT INVENTION Diff/Sample-Control [1, 9]: -0.50 µg/mL
- PRESENT INVENTION [1, 10]: 74.41 µg/mL
- PRESENT INVENTION % C.R. [1, 10]: N.D. (Less than sensitivity at 2.00 ug/mL vancomycin)
- PRESENT INVENTION Diff/Sample-Control [1, 10]: -0.83 µg/mL
- PRESENT INVENTION [1, 11]: 71.22 µg/mL
- PRESENT INVENTION % C.R. [1, 11]: N.D. (Less than sensitivity at 2.00 ug/mL vancomycin)
- PRESENT INVENTION Diff/Sample-Control [1, 11]: -0.26 µg/mL
- cross-reactivity ([1]; vancomycin 0, 40, 80 μg/mL, cross reactants 0, 1, 10, 50, 100 μg/mL): less than 2%
- COMMERCIAL ASSAY VALUES ([2]; CDP-I 1 ug/mL): 0.92 µg/mL
- COMMERCIAL ASSAY cross reactivity ([2]; CDP-I 1 ug/mL): N.D. (Less than sensitivity at 2.00 ug/mL vancomycin)
- COMMERCIAL ASSAY VALUES ([2]; CDP-I 2.5 ug/mL): 1.61 µg/mL
- COMMERCIAL ASSAY cross reactivity ([2]; CDP-I 2.5 ug/mL): N.D. (Less than sensitivity at 2.00 ug/mL vancomycin)
- COMMERCIAL ASSAY VALUES ([2]; CDP-I 5 ug/mL): 3.25 µg/mL
- COMMERCIAL ASSAY cross reactivity ([2]; CDP-I 5 ug/mL): 65%
- COMMERCIAL ASSAY VALUES ([2]; CDP-I 7 ug/mL): 4.54 µg/mL
- COMMERCIAL ASSAY cross reactivity ([2]; CDP-I 7 ug/mL): 64.86%
- COMMERCIAL ASSAY VALUES ([2]; CDP-I 10 ug/mL): 6.42 µg/mL
- COMMERCIAL ASSAY cross reactivity ([2]; CDP-I 10 ug/mL): 64.2%
- COMMERCIAL ASSAY VALUES ([2]; CDP-I 15 ug/mL): 8.87 µg/mL
- COMMERCIAL ASSAY cross reactivity ([2]; CDP-I 15 ug/mL): 59.13%
- COMMERCIAL ASSAY VALUES ([2]; CDP-I 20 ug/mL): 11.04 µg/mL
- COMMERCIAL ASSAY cross reactivity ([2]; CDP-I 20 ug/mL): 55.20%
- COMMERCIAL ASSAY VALUES ([2]; CDP-I 25 ug/mL): 12.94 µg/mL
- COMMERCIAL ASSAY cross reactivity ([2]; CDP-I 25 ug/mL): 51.76%
- COMMERCIAL ASSAY VALUES ([2]; CDP-I 50 ug/mL): 19.79 µg/mL
- COMMERCIAL ASSAY cross reactivity ([2]; CDP-I 50 ug/mL): 39.58%
- COMMERCIAL ASSAY [2, 4]: 39.99 µg/mL
- COMMERCIAL ASSAY % C.R. [2, 4]: N.D. (Less than sensitivity at 2.00 ug/mL vancomycin)
- COMMERCIAL ASSAY Diff/Sample-control [2, 4]: 1.05 µg/mL
- COMMERCIAL ASSAY [2, 5]: 43.74 µg/mL
- COMMERCIAL ASSAY % C.R. [2, 5]: 48%
- COMMERCIAL ASSAY Diff/Sample-control [2, 5]: 4.80 µg/mL
- COMMERCIAL ASSAY [2, 6]: 55.49 µg/mL
- COMMERCIAL ASSAY % C.R. [2, 6]: 36.66%
- COMMERCIAL ASSAY Diff/Sample-control [2, 6]: 18.33 µg/mL
- COMMERCIAL ASSAY [2, 7]: 67.35 µg/mL
- COMMERCIAL ASSAY % C.R. [2, 7]: 30.85%
- COMMERCIAL ASSAY Diff/Sample-control [2, 7]: 30.85 µg/mL
- COMMERCIAL ASSAY [2, 8]: 78.85 µg/mL
- COMMERCIAL ASSAY % C.R. [2, 8]: N.D. (Less than sensitivity at 2.00 ug/mL vancomycin)
- COMMERCIAL ASSAY Diff/Sample-control [2, 8]: -0.68 µg/mL
- COMMERCIAL ASSAY [2, 9]: 83.34 µg/mL
- COMMERCIAL ASSAY % C.R. [2, 9]: 38.1%
- COMMERCIAL ASSAY Diff/Sample-control [2, 9]: 3.81 µg/mL
- COMMERCIAL ASSAY % C.R. [2, 10]: HI ((>100))
- COMMERCIAL ASSAY Diff/Sample-control [2, 10]: HI ((>100))
- COMMERCIAL ASSAY ug/mL [2, 10]: HI ((>100))
- COMMERCIAL ASSAY % C.R. [2, 11]: HI ((>100))
- COMMERCIAL ASSAY Diff/Sample-control [2, 11]: HI ((>100))
- COMMERCIAL ASSAY ug/mL [2, 11]: HI ((>100))

Molecule: Ring-2 dechloro CDP [compound 12]
- Kd [3]: 6000 nM

Molecule: aglucovancomycin [compound 6]
- Kd [3]: 42000 nM

Molecule: Crystalline degradation product (CDP) [compound 10]
- Kd [3]: 488 ± 34 nM

Second part, the molecule after the results:

- Kd [3]: 87 ± 4 nM
Molecule: Ring-2 dechlorovancomycin [compound 8]

- Kd [3]: ≤ 0.2 nM
Molecule: CC(C)CC(C(=O)NC1C(=O)NC(CC(N)=O)C(=O)NC2C(=O)NC3C(=O)NC(C(=O)NC(C(=O)O)c4cc(O)cc(O)c4-c4cc3ccc4O)C(O)c3ccc(c(Cl)c3)Oc3cc2cc(c3OC2OC(CO)C(O)C(O)C2OC2CC(C)(N)C(O)C(C)O2)Oc2ccc(cc2Cl)C1O)N(C)C(=O)CCCCC1SCC2NC(=O)NC21 (centres unmarked) [compound 16]

Reference: patent publication US20040209318A1, “Reagents and methods for the detection and quantification of vancomycin in bilogical fluids” (priority 1995, published 2004)
